In US20240335439A1, “USE OF AND METHOD FOR TELAPREVIR IN PREPARATION OF DRUG FOR TREATING AN ISCHEMIA/REPERFUSION INJURY AND CYTOPROTECTIVE DRUG” (THE THIRD XIANGYA HOSPITAL OF CENTRAL SOUTH UNIVERSITY, priority 2021, published 2024):

Key:
[1] = test system: myocardial ischemia/reperfusion injury mouse models; assay: Myocardial ischemia/reperfusion injury mouse model (LAD ligation 1 h, reperfusion 24 h); type: in vivo, C57BL/6J mice; details: telaprevir 60 mg/kg after 30 minutes of ischemia, 24 h reperfusion
Description: Experimental animals: 7-week-old male C57BL/6J mice. The experimental animals were raised for one week in an environment with a temperature of 25° C., a relative humidity of 60%, free drinking water, and timed and quantified feeding, and then administered according to the requirements of each experimental group.
Method for building a myocardial ischemia/reperfusion mouse model: After an 8-week-old male C57BL/6J mouse was anesthetized by intraperitoneal injection with 0.3% pentobarbital sodium (20 mL/kg), a trachea cannula was inserted from the mouth and secured with a pressure-sensitive adhesive. […] The chest was opened, left anterior descending (LAD) branches were ligated with 8-0 sutures, myocardial infarction can be determined when the cardiac apex turned white, and the ligation was maintained for 1 hour. […] After staining, the staining solution was removed, the heart slices were washed with PBS once, immobilized with 4% paraformaldehyde for 24 hours, and then taken out, the staining situation was observed, photos were taken, and an ischemic area and an infarct area were measured by ImageJ software. […]
Blood and myocardial tissues were collected and relevant indicators were measured: myocardial infarct area in mice was measured and serum creatine kinase activity (CK activity) was detected. […]

[2] = test system: Alzheimer's disease mouse models; assay: Alzheimer's disease mouse model (Aβ1-42 into hippocampus), Morris water maze experiment; type: in vivo, ICR mice; details: telaprevir 40 mg/kg intramuscular daily for 17 days, #P<0.05 vs AD+vehicle
Description: Experimental animals: 7-week-old healthy male ICR mice weighing 25-30 g. The experimental animals were raised for one week in an environment with a temperature of 25° C., a relative humidity of 60%, free drinking water, and timed and quantified feeding, and then administered according to the requirements of each experimental group.
Building of an Alzheimer's disease mouse model and drug treatment: Aβ1-42 was purchased from MCE Reagent Company, dissolved in DMSO, diluted with physiological saline to 2 μg/μL, and incubated in an incubator at 37° C. for 7 days to convert the Aβ1-42 into an aggregated state. […]
A learning and memory ability and cognitive function of mice were detected by a Morris water maze experiment and a new/old object recognition experiment.
According to the requirements of the water maze experiment, a Morris water maze was divided into four quadrants, a platform having a diameter of 12 cm and a height of 35 cm was placed in one of the quadrants, water was added to submerge the platform 1-2 cm, and the pool water was dyed black with carbon ink. After the positioning navigation experiment lasted for 5 days, the platform was removed for a spatial probe experiment, and the time for the mice to reach the original platform position (namely, incubation period) and the number of times they crossed the platform were recorded.

SMILES: CCC[C@H](NC(=O)[C@@H]1[C@H]2CCC[C@H]2CN1C(=O)[C@@H](NC(=O)[C@@H](NC(=O)c1cnccn1)C1CCCCC1)C(C)(C)C)C(=O)C(=O)NC1CC1 [telaprevir]
- serum creatine kinase activity ([1]; ##P<0.01 vs I/R, FIG. 1B): significantly reduce
- infarct area of myocardial tissues in mice (TTC staining, AOI/AOR) ([1]; vs I/R, FIG. 1A): significantly reduce
- time to find the original platform position (incubation period), Morris water maze ([2]; FIG. 6A): significant decrease
- number of times they crossed the platform, Morris water maze ([2]; FIG. 6B): significant increase
